Data from patent US20160199434A1, “COMPOSITIONS AND METHODS FOR MODULATING DNA METHYLATION” (OHIO STATE INNOVATION FOUNDATION, priority 2013, published 2016).

Tested on: human A375 melanoma cells
Test: Tumor growth of human A375 melanoma cells implanted in SCID mice
Format: in vivo, mouse
Conditions: 19 days after palpable tumor formation, AKB-6899 17.5 mg/kg, Docetaxel 30 mg/kg
Procedure: During treatment, tumor growth was determined. Animals were treated with one the following combinations: vehicle/vehicle, vehicle/AKB-6899 (17.5 mg/kg), Docetaxel (30 mg/kg)/vehicle, or Docetaxel/AKB-6899. 19 days after palpable tumor formation, the tumors in the mice receiving the vehicle/AKB-6899 combination had tumors that were 74% the size of control; the tumors in the mice receiving Docetaxel/vehicle combination had tumors that were 49% the size of control; and the tumors in the mice receiving the Docetaxel/AKB-6899 combination had tumors that were 13% the size of control.

CC(=O)O[C@@]12CO[C@@H]1C[C@H](O)[C@@]1(C)C(=O)[C@H](O)C3=C(C)[C@@H](OC(=O)[C@H](O)[C@@H](NC(=O)OC(C)(C)C)c4ccccc4)C[C@@](O)([C@@H](OC(=O)c4ccccc4)[C@H]21)C3(C)C [Docetaxel, reference compound]
tumor size relative to control: 49%
